Data on 8 molecules can be found in PubChem BioAssay (NCI).

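Five compound concentrations were applied to cells in 96-well plates for 48 hours; endpoints were derived by simple linear interpolation of the resulting dose-response curve. The concentration for 50% growth inhibition is given as GI50. TGI is the concentration that stops growth completely.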 Where only a bound is given, the exact number is not on record here.

Holding throughout (assay): growth of human tumour cells (NCI), 48 h
The subject of test [1] is SNB-75 CNS.
In test [2] the test system is SR leukemia.
Test [3] deals with 786-0 renal.
For test [4], the system named is T-47D breast.
In test [5] the test system is U251 CNS.
Test [6] deals with EKVX NSCLC.
The test system of test [7] is KM12 colon.
Test [8] concerns HL-60(TB) leukemia.
The subject of test [9] is ACHN renal.
Test [10] concerns CAKI-1 renal.

As for `CC(C)(C)OC(=O)N1CCN(CCn2cc(C(F)(F)F)c3c(Cl)ncnc32)CC1`, the GI50 in [1] is 16.2 µM; in test [2], 2.94 µM; in [3] it was 14 µM; in [4], 11.5 µM; in test [5], 2.01 µM; in [6] it was 11.3 µM. Moreover, the values for the GI50 in [7], in [8] and in test [9] were 16.9 µM, 2.43 µM and 16.9 µM, respectively. Besides, the TGI was 32.9 µM in test [1]; more than 100 µM in [2]; 27.2 µM in test [3]; 34.5 µM in [4]; 3.57 µM in test [5]; 25.7 µM in [6]. Besides, the TGI in test [7] was found to be 35.3 µM; in test [8], 6.46 µM; in test [9] it was 39.3 µM.

Turning to `Nc1c(C(=O)c2cccc(-c3ccncc3)c2)cnn1-c1ccc(F)cc1F`, the GI50 in test [1] is 4.99 µM; in [2], 1.05 µM; in [3], more than 25 µM; in [4] it was 3.67 µM; in test [5] it was 12.6 µM; in test [10] it was 8.1 µM. Besides, the GI50 in test [7] was 2.05 µM; in [8], 5.57 µM; in test [9], 12 µM. For the same molecule, the TGI in [1] is more than 25 µM; in [2] it was more than 18.5 µM; in [3], more than 25 µM; in test [4], more than 25 µM; in test [5], more than 25 µM; in test [10], more than 25 µM. Further, the TGI in test [7], in test [8] and in test [9] was more than 25 µM throughout.

Take `O=C(O)C(/C=C/c1ccccc1)c1ccccc1` (stereo not drawn): the TGI in test [1], in test [2], in test [3], in [4], in test [5] and in [6] was more than 100 µM throughout. Also, the TGI in test [8] is 75.1 µM; in test [9], more than 100 µM.

With `Cc1cc2c(cc1C)N(C(=O)CCl)CC(=O)N2`, the GI50 in [1] was 3.39 µM; in test [2], 2.65 µM; in test [3], 3.9 µM; in test [4], 1.97 µM; in test [5] it was 1.92 µM; in test [10] it was 1.84 µM. For the same molecule, the GI50 is 8.2 µM in test [7], 2.69 µM in test [8] and 1.82 µM in test [9]. Besides, the TGI in test [1] was 20.8 µM; in test [2], 7.04 µM; in [3], 15.5 µM; in [4], 3.99 µM; in test [5], 4.25 µM; in test [10], 3.52 µM. Besides, the TGI in test [7] came to 22.2 µM; in test [8], 5.74 µM; in test [9], 3.24 µM.

As to `COC(=O)C1(C)CCC(c2ccc(C)cc2)=C(CC(=O)O)C1` (stereo not drawn), the TGI in test [1], in [2], in test [3], in [4], in test [5] and in [6] was more than 100 µM in each case. Further, the TGI in test [8] and in test [9] was more than 100 µM in each case.

Take `COc1cc([C@@H]2OC[C@@H]3C(c4cc(OC)c5c(c4)OCO5)OC[C@@H]32)cc(OC)c1OC` (stereo partly drawn): the TGI in [1], in test [2], in [3], in test [4], in [5] and in [10] was more than 100 µM in each case. Further, the TGI in test [6], in test [7] and in test [9] was more than 100 µM each time.

For `COc1ccc(C(=O)OC2C(OC3C(O)COC(O[C@H]4C[C@H]5[C@@H]6CC=C7C[C@@H](O)CC[C@]7(C)[C@H]6CC[C@]5(C)[C@H]4[C@H](C)C(=O)CCC(C)C)C3OC(N)=O)OCC(O)C2O)cc1` (stereo partly drawn), the GI50 is less than 0.003 µM in test [1]; 0.00567 µM in [2]; 0.00486 µM in test [3]; 0.0501 µM in test [4]; less than 0.003 µM in [5]; 0.102 µM in [10]. The GI50 in test [6] is 0.102 µM; in test [7], 0.175 µM; in test [9], 0.471 µM. Further, the TGI in test [1] was 3.87 µM; in test [2] it was 0.493 µM; in test [3], 3.13 µM; in test [4], 2.02 µM; in [5] it was 3.32 µM; in test [10], 0.975 µM. Further, the TGI came out at 4.1 µM in [6], 4.37 µM in test [7] and 5.53 µM in test [9].

Consider `COc1ccc2cc(C(=O)/C=C/c3ccc(Cl)cc3Cl)ccc2c1`, for which the GI50 in [2] is 3.67 µM; in test [3] it was 8.13 µM; in test [4], 20.8 µM; in [5], 16.7 µM; in [10], 15.8 µM; in test [6], 9.79 µM. The GI50 in test [7] is 14.3 µM; in test [9] it was 15.1 µM. In addition, the TGI in test [2] was found to be 17.3 µM; in test [3], 24.3 µM; in test [4], 66.8 µM; in [5], 36.2 µM; in test [10], 70 µM; in [6] it was 26.4 µM. The TGI in [7] amounted to 35 µM; in [9], 51.3 µM.
